Like-named read-outs stand apart in the source and are kept apart here.
What was measured:
[1] = molecular target: T1, α1A Human Adrenergic Receptor (Homo sapiens, UniProt P25100); test: Radioligand binding, [3H]prazosin, cloned human α1A adrenergic receptor; conditions: pKi alpha-1 1a
T1 construct: The entire coding region of α1A (1719 bp); expressed in transfected cells
T1 sequence (P25100 1-572): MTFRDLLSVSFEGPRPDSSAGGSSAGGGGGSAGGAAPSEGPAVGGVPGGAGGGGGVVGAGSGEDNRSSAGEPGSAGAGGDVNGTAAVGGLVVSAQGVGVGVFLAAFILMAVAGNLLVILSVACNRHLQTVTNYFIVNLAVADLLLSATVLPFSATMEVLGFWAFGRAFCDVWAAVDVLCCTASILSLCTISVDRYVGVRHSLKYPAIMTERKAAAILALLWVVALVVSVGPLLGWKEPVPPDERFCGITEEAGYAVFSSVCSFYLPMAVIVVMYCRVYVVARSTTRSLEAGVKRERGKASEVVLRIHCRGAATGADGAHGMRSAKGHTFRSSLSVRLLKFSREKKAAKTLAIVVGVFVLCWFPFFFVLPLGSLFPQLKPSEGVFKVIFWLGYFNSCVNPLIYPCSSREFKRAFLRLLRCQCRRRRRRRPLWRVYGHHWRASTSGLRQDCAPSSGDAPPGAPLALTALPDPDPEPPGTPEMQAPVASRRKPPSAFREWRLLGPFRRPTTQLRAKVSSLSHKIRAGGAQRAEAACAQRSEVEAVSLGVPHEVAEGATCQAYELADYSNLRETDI
How it was run: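 Binding of [3H]prazosin (0.5 nM) was measured at 37° C over 20 min in pH 7.5 Tris/MgCl2/ascorbate buffer, using membrane preparations of LM(tk−) cells expressing cloned human α1A receptor. Filtration through GF/B filters stopped the reaction. 10 μM phentolamine gave nonspecific binding.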

α2C receptor = molecular target: T2, α2C receptor (Homo sapiens, UniProt P18825); test: Competition binding, [3H]rauwolscine, human α2C receptor
T2 construct: host or cells: LM(tk-) cells, line L-α2C
T2 sequence (P18825 1-462): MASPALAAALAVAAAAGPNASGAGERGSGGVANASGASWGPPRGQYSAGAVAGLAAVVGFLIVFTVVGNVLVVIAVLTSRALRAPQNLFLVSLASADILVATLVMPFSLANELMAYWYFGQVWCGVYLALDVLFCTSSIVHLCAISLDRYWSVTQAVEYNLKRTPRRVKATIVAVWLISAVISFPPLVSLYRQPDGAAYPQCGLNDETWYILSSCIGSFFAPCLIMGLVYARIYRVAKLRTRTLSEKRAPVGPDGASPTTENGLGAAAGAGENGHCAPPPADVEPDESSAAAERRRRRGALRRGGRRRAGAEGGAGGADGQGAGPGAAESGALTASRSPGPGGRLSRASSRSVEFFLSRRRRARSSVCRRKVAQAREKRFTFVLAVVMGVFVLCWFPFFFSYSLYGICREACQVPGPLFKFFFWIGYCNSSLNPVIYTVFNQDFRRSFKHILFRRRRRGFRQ
How it was run: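 Filter-bound [3H]rauwolscine (0.5 nM) was measured after equilibrium competition with test antagonists on lysates of LM(tk−) cells stably transfected with each human α2 subtype. Buffer: 25 mM glycylglycine, pH 7.6 at room temperature; 10 μM phentolamine gave nonspecific binding.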

L-type calcium channel = molecular target: T3, L-type calcium channel (Rattus norvegicus, UniProt P22002); test: Competition binding of [3H]nitrendipine to membrane fragments of rat cardiac muscle
T3 construct: membrane fragments of rat cardiac muscle; from tissue; host or cells: rat cardiac muscle membranes
T3 sequence (P22002 whole entry, other chains not shown, the tested form may be a part): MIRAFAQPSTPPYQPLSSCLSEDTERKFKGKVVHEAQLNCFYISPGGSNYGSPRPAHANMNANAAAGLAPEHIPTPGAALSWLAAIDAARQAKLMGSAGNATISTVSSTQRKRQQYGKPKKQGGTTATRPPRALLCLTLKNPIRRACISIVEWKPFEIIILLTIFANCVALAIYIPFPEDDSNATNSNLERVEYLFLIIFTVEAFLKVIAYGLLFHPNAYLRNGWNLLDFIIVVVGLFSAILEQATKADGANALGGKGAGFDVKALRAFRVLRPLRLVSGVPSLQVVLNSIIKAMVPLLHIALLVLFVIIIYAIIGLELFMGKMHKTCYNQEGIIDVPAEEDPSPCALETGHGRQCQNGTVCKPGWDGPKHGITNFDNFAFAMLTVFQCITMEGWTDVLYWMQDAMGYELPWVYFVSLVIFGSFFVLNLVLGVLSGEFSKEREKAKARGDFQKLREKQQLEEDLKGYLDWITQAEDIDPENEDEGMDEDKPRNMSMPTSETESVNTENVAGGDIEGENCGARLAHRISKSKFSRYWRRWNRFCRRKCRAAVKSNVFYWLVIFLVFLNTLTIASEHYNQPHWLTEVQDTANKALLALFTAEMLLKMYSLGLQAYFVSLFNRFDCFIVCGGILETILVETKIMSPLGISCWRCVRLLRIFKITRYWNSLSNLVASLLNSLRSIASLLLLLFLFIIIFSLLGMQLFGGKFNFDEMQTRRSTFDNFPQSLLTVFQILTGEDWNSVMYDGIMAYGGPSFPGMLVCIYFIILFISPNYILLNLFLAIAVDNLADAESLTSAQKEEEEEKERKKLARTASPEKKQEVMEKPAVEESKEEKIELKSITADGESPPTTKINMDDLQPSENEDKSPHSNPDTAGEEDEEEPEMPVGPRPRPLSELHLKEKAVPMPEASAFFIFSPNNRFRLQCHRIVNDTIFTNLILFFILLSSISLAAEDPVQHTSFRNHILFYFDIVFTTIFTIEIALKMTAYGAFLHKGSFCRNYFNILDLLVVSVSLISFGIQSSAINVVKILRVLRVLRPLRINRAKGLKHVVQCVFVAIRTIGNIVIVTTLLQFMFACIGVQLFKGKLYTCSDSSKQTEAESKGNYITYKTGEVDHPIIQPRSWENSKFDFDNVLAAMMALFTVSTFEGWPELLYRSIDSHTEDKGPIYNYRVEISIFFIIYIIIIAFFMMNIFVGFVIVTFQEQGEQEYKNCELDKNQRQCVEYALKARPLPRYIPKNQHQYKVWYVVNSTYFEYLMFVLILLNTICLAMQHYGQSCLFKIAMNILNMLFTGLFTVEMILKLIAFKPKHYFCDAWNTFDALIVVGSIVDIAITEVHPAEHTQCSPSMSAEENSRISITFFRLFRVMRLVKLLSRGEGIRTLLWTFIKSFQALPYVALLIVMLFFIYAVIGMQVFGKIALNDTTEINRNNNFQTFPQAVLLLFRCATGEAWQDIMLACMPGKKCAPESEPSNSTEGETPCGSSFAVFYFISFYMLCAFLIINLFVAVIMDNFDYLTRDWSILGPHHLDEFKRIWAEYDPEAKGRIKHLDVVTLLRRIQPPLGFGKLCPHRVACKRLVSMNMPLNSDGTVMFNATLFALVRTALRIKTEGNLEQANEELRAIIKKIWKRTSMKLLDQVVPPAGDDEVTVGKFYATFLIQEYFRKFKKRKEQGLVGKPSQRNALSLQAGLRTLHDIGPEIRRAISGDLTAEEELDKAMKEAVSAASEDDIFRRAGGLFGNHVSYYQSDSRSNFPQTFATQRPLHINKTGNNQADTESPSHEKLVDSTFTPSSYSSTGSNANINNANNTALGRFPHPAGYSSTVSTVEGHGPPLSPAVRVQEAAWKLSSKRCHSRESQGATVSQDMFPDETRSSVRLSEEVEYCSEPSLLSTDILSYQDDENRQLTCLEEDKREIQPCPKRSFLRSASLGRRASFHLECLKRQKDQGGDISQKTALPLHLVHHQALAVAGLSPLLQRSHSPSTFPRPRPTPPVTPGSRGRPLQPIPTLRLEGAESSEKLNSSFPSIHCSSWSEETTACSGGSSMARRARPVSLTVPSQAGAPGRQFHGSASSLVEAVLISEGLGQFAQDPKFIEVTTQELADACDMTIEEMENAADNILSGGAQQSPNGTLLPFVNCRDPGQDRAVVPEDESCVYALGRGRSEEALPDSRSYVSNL
T3 sequence (P54290 25-944 partner limits assumed, other chains not shown): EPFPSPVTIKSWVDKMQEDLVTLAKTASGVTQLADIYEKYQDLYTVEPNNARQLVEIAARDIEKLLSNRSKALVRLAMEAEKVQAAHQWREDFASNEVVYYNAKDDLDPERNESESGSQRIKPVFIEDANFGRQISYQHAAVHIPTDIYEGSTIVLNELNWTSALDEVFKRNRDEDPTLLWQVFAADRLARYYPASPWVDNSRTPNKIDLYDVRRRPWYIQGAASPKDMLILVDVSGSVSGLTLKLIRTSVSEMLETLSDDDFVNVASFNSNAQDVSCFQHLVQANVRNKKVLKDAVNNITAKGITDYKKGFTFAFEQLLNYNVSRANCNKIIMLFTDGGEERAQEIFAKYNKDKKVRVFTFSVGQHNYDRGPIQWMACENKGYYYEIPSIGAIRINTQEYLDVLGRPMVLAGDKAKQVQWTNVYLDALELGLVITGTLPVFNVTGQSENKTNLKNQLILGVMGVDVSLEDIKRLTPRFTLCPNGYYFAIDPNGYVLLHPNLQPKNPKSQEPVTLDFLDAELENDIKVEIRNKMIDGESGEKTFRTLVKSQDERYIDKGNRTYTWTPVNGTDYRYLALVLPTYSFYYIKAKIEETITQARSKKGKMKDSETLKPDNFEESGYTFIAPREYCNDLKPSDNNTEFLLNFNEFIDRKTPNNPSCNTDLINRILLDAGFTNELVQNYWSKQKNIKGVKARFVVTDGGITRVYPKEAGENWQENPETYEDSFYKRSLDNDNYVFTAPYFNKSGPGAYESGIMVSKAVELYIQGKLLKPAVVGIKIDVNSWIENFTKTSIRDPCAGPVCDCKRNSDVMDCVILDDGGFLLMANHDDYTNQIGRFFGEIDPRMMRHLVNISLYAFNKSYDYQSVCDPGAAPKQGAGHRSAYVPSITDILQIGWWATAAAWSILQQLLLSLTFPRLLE
T3 sequence (P54290 945-1091 partner limits assumed, other chains not shown): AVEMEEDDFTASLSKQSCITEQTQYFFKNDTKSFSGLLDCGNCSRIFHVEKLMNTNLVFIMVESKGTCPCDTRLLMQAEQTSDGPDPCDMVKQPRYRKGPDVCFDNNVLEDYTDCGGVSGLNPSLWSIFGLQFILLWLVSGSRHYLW

[2] = [3H]prazosin, cloned human α1A receptor, LM(tk−) cell membranes
[3] = pKi alpha-2 2c, [3H]rauwolscine, human α2C receptor, LM(tk−) cells
[4] = [3H]nitrendipine, rat cardiac muscle membrane fragments, L-type calcium channel, read-out: pKi Ca (converted)
[5] = [3H]prazosin, cloned human receptor in LM(tk-) cell membranes, SEM and n in lines below
[6] = [3H]rauwolscine, LM(tk-) cell line L-α2C, SEM and n in lines below, read-out: pKi alpha-2 2c (converted)
[7] = [3H]nitrendipine, rat cardiac muscle membranes, SEM and n in lines below, read-out: pKi Ca (converted)

Structure (SMILES)	Ki [1]	Ki (α2C receptor; pKi alpha-2 2c)	Ki (L-type calcium channel; pKi Ca)	also measured
COC(=O)C1=C(C)NC(C)=C(C(=O)NCCCN2CCC(c3ccccc3)(c3ccccc3)CC2)C1c1ccc(C(=O)OC)cc1 (stereo not drawn) [Example 25, 1,4-Dihydro-3-methoxycarbonyl-4-(4-methoxycarbonylphenyl)-2,6-dimethyl-5-(N-(3-(4,4-diphenylpiperidin-1-yl)propyl)carboxamide)pyridine]	0.646 µM	1.02 µM	1.15 µM	
COC(=O)C1=C(C)NC(C)=C(C(=O)NCCCN2CCC(c3ccccc3)(c3ccccc3)CC2)C1c1ccc(C(C)C)cc1 (stereo not drawn) [Example 18, 1,4-Dihydro-4-(4-isopropylphenyl)-3-methoxycarbonyl-2,6-dimethyl-5-(N-(3-(4,4-diphenylpiperidin-1-yl)propyl)carboxamido)pyridine]	0.891 µM	0.933 µM	0.162 µM	
CCC1=C(C(N)=O)C(c2ccc(S(C)(=O)=O)cc2)C(C(=O)NCCCN2CCC(c3ccccc3)(c3ccccc3)CC2)=C(C)N1 (stereo not drawn) [Example 118, 3-Carboxamido-2-ethyl-1,4-dihydro-4-(4-methanesulfonylphenyl)-6-methyl-3-(N-(3-(4,4-diphenylpiperidin-1-yl)propyl)carboxyamido)-pyridine]				Ki [1, 2]: 2.19 µM; Ki (α2C receptor; [3]): 2.24 µM; Ki (L-type calcium channel; [4]): 1000 µM
COC(=O)C1=C(C)NC(C)=C(C(=O)NCCCN2CCC(c3ccccc3)(c3ccccc3)CC2)C1c1ccc2ccccc2c1 (stereo not drawn) [Example 22]	0.741 µM	0.631 µM	0.372 µM	
COC(=O)C1=C(C)NC(C)=C(C(=O)NCCCN2CCC(c3ccccc3)(c3ccccc3)CC2)C1Cc1ccccc1 (stereo not drawn) [Example 8, 4-Benzyl-1,4-dihydro-3-methoxycarbonyl-2,6-dimethyl-5-(N-(3-(4,4-diphenylpiperidin-1-yl)propyl)carboxamido)pyridine]				Ki [1, 5]: 0.38 µM; Ki (α2C receptor; [6]): 0.339 µM; Ki (L-type calcium channel; [7]): 11.5 µM
COC(=O)C1=C(C)NC(C)=C(C(=O)NCCCN2CCC(c3ccccc3)(c3ccccc3)CC2)C1c1ccc2c(c1)OCO2 (stereo not drawn) [Example 11, 1,4-Dihydro-3-methoxycarbonyl-2,6-dimethyl-4-(3,4-methylenedioxyphenyl)-5-(N-(3-(4,4-diphenylpiperidin-1-yl)propyl)carboxamido)pyridine]	0.302 µM	0.575 µM	2.29 µM	
COC(=O)C1=C(C)NC(C)=C(C(=O)NCCCN2CCC(c3ccccc3)(c3ccccc3)CC2)C1c1ccc(Cl)c([N+](=O)[O-])c1 (stereo not drawn) [Example 16, 4-(4-Chloro-3-nitrophenyl)-1,4-dihydro-3-methoxycarbonyl-2,6-dimethyl-5-(N-(3-(4,4-diphenylpiperidin-1-yl)propyl)carboxamido)pyridine]	0.427 µM	0.38 µM	0.813 µM	
CCC1=C(C(N)=O)C(c2ccc([N+](=O)[O-])cc2)C(C(=O)NCCCN2CCC(C#N)(c3ccccc3)CC2)=C(CC)N1 (single isomer, unassigned; (+)) [(+)-102]				Ki [1, 2]: 2.88 µM; Ki (α2C receptor; [3]): 3.31 µM; Ki (L-type calcium channel; [4]): 1000 µM
COC(=O)C1=C(C)NC(C)=C(C(=O)NCCCN2CCC(c3ccccc3)(c3ccccc3)CC2)C1c1ccc(OC)c(OC)c1 (stereo not drawn) [Example 26]	0.525 µM	1.48 µM	0.0871 µM	
CNC(=O)C1=C(C)NC(C)=C(C(=O)NCCCN2CCC(O)(c3ccccc3)CC2)C1c1ccc([N+](=O)[O-])cc1 (stereo not drawn) [Example 162, 1,4-Dihydro-3-{N-[3-(4-hydroxy-4-phenylpiperidin-1-yl)propyl]}carboxamido-2,6-dimethyl-5-(N-methyl)carboxamido-4-(4-nitrophenyl)pyridine]				Ki [1, 2]: 1.07 µM; Ki (α2C receptor; [3H]rauwolscine, human α2C receptor, LM(tk−) cells, read-out: pKi alpha-2 2c (converted)): 0.55 µM; Ki (L-type calcium channel; [4]): 50.1 µM
CC1=C(C(=O)NCCCN2CCC(c3ccccc3)(c3ccccc3)CC2)C(c2ccc([N+](=O)[O-])cc2)c2c([nH]c(=O)[nH]c2=O)N1 (stereo not drawn) [Example 64]				Ki [1, 5]: 0.49 µM; Ki (α2C receptor; [6]): 0.479 µM; Ki (L-type calcium channel; [7]): 97.7 µM
